Like-named read-outs stand apart in the source and are kept apart here.
Assays:
[1] = test system: HCT116 (colon) cancer cell line; test: 2D-monolayer antiproliferation (MTT) against HCT116; assay type: cell-based, human; details: for IC50: Homo sapiens, HCT-116; for SI (selectivity index) HCT116: IC50 of RPE1 normal cell/IC50 of HCT116
[2] = test system: PaCa2 (pancreatic) cancer cell line; test: 2D-monolayer antiproliferation (MTT) against PaCa2; assay type: cell-based, human; details: for 1/(observed property): 1/observed IC50 (μM), PaCa2; for IC50: Homo sapiens, PaCa-2, MTT, 72 h incubation, PaCa2 pancreatic, read-out: IC50, μM ± SEM PaCa2; for SI (selectivity index) PaCa2: IC50 of RPE1 normal cell/IC50 of PaCa2
[3] = test system: MCF7 (breast) cancer cell line; test: 2D-monolayer antiproliferation (MTT) against MCF7; assay type: cell-based, human; details: for IC50: Homo sapiens, MTT, 72 h incubation, MCF7 breast, read-out: IC50, μM ± SEM MCF7; for SI (selectivity index) MCF7: IC50 of RPE1 normal cell/IC50 of MCF7
[4] = test system: A549 (lung) cancer cell line; test: 2D-monolayer antiproliferation (MTT) against A549; assay type: cell-based, human; details: for IC50: Homo sapiens, MTT, 72 h incubation, A549 lung, read-out: IC50, μM ± SEM A549
[5] = test system: RPE1 (normal human immortalized retinal pigment epithelial cell line); test: cells; assay type: cell-based; details: for IC50: Homo sapiens, RPE-1, MTT, normal RPE1 cell, read-out: IC50, μM ± SEM RPE1; for selectivity index (SI): IC50 against RPE1 compared to the tested cancer cell line(s), in words
[6] = target: T1, VEGFR-2 (Homo sapiens, UniProt P35968); test: cell-based; assay type: cell-based; details: for inhibition at 10 µM: HCT-116, HCT116; for VEGFR-2 pg/mL ± SEM HCT116: at 10 μM, control 317.80 ± 3.5
T1 construct: endogenous in cells; host or cells: HCT116, PaCa2, MCF7 (human cancer cell lines, ATCC origin)
T1 sequence (P35968 20-1356): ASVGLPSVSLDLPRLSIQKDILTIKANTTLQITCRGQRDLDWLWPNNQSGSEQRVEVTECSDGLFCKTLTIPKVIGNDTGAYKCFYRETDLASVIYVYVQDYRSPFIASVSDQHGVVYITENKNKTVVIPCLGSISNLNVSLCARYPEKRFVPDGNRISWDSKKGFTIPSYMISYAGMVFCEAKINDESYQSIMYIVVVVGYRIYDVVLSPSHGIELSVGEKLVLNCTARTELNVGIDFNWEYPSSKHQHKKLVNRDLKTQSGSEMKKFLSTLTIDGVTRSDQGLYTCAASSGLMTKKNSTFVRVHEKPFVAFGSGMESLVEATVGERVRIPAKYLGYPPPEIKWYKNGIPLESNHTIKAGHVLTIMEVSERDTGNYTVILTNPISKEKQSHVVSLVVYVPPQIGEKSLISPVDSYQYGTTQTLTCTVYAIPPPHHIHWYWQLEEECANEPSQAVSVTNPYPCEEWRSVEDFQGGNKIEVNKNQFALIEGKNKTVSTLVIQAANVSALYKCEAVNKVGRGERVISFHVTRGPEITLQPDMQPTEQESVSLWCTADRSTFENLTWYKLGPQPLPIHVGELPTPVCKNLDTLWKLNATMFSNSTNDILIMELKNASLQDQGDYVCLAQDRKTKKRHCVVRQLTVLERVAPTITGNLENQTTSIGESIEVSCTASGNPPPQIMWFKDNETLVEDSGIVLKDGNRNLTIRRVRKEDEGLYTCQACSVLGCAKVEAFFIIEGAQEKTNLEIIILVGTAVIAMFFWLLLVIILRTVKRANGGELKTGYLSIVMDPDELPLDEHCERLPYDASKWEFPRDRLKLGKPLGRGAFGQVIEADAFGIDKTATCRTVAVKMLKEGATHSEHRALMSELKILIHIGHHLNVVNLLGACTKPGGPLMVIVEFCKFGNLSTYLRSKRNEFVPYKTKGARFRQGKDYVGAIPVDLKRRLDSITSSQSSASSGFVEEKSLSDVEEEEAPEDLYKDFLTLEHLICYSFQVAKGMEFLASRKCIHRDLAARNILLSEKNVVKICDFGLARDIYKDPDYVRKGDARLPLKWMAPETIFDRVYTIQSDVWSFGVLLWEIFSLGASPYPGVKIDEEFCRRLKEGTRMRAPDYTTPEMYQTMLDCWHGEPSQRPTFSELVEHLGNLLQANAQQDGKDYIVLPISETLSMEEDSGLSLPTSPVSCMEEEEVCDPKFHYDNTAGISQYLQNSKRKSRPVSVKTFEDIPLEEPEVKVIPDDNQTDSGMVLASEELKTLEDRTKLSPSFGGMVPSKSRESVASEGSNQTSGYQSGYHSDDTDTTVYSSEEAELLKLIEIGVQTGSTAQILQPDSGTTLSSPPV

[7] = target: T1, VEGFR-2; test: cell-based; assay type: cell-based; details: for inhibition at 10 µM: PaCa-2, PaCa2; for VEGFR-2 pg/mL ± SEM PaCa2: at 10 μM, control 326.80 ± 1.9
[8] = target: T1, VEGFR-2; test: cell-based; assay type: cell-based; details: for inhibition at 10 µM: MCF7; for VEGFR-2 pg/mL ± SEM MCF7: at 10 μM, control 258.70 ± 2.3
[9] = target: T2, COX-1 (Ovis aries, UniProt P05979); test: biochemical; details: 3 replicates, read-out: % Inhibition of COX-1 ± SEM
T2 construct: purchased BioVision incorporated USA K548–100
T2 sequence (P05979 25-600): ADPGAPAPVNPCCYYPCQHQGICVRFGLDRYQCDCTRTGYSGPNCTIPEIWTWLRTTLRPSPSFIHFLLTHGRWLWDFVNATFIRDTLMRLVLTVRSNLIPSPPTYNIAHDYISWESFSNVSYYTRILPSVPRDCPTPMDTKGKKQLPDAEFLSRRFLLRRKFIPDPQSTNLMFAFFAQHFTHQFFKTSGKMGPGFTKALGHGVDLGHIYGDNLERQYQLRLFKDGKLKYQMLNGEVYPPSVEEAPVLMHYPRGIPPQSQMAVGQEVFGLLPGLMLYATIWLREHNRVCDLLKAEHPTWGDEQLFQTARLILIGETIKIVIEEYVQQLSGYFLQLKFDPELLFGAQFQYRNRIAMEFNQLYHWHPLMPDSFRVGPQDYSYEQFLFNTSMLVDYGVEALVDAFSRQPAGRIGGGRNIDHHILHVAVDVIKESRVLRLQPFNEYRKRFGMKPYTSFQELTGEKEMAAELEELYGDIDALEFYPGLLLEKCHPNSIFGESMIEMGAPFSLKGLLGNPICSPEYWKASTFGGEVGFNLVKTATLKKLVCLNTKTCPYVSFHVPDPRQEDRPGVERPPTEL

[10] = target: T3, COX-2 (Homo sapiens, UniProt P35354); test: biochemical; details: for inhibition at 10 µM: 3 replicates, read-out: % Inhibition of COX-2 ± SEM; for SI (selectivity index, COX-2/COX-1): at 10 μM
T3 construct: purchased BioVision incorporated USA K548–100
T3 sequence (P35354 18-604): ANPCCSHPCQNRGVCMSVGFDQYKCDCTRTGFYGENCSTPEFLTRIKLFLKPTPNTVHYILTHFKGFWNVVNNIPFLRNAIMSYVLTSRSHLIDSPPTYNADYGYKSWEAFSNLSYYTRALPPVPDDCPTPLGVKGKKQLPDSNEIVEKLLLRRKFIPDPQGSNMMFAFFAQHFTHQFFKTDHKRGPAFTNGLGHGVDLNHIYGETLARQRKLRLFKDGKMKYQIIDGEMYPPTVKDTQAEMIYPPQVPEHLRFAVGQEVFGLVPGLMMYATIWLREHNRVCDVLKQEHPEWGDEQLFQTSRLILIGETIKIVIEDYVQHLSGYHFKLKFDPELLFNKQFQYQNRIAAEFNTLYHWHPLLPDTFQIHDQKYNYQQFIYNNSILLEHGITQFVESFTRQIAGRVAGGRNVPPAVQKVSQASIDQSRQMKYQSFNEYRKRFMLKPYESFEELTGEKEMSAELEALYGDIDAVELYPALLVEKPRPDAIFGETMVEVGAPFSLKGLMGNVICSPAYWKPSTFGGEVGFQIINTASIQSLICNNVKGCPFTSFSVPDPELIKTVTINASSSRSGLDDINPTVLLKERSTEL

[11] = test system: TNF-α; test: TNF-α inhibitory properties (ELISA), HCT116 cell lysate; assay type: cell-based, human; details: at 10 μM; for TNF-α pg/mL (± SEM) HCT116: control 95.74 ± 0.5
[12] = test system: TNF-α; test: TNF-α inhibitory properties (ELISA), PaCa2 cell lysate; assay type: cell-based, human; details: at 10 μM; for TNF-α pg/mL (± SEM) PaCa2: control 111.8 ± 2.0
[13] = test system: TNF-α; test: TNF-α inhibitory properties (ELISA), MCF7 cell lysate; assay type: cell-based, human; details: at 10 μM; for TNF-α pg/mL (± SEM) MCF7: control 83.26 ± 1.1
[14] = MTT, 72 h incubation, HCT116 colon, read-out: IC50, μM ± SEM HCT116
[15] = log of observed IC50 (μM), HCT116, read-out: Log(observed property) (converted)

Row | Structure (SMILES) | IC50 [1, 14] | IC50 [1, 15] | SI (selectivity index) HCT116 [1] | 1/(observed property) [2] | IC50 [2] | SI (selectivity index) PaCa2 [2] | IC50 [3] | SI (selectivity index) MCF7 [3] | IC50 [4] | IC50 [5] | selectivity index (SI) [5] | inhibition at 10 µM [6] | VEGFR-2 pg/mL ± SEM HCT116 [6] | inhibition at 10 µM [7] | VEGFR-2 pg/mL ± SEM PaCa2 [7] | inhibition at 10 µM [8] | VEGFR-2 pg/mL ± SEM MCF7 [8] | inhibition at 10 µM [9] | inhibition at 10 µM [10] | SI (selectivity index, COX-2/COX-1) [10] | also measured
1 | CCOP(=O)(OCC)N1C/C(=C\c2ccc(C)cc2)C(=O)C2(C1)C(c1ccc(C)cc1)CN(C)C21C(=O)Nc2ccc(F)cc21 (centres unmarked) [Compound 17n, Diethyl (E)-(5-fluoro-1′-methyl-5′′-(4-methylbenzylidene)-2,4′′-dioxo-4′-(p-tolyl)dispiro[indoline-3,2′-pyrrolidine-3′,3′′-piperidin]-1′′-yl)phosphonate] | 5.09 ± 0.191 µM | 5.09 µM | > 9.8 | 0.06519 | 15.3 ± 0.911 µM | > 3.3 | 4.37 ± 0.156 µM | > 11.5 | > 50 µM | > 50 µM | high selectivity index | 63.7% | 115.30 ± 2.2 pg/mL | 87.5% | 40.70 ± 1.6 pg/mL | 66.9% | 85.60 ± 0.7 pg/mL | 50.6 ± 2.3% | 47.3 ± 1.4% | 1.08 | TNF-α % inhibition HCT116 [11]: 9.7%; TNF-α pg/mL (± SEM) HCT116 [11]: 86.47 ± 2.4 pg/mL; TNF-α % inhibition PaCa2 [12]: 13.9%; TNF-α pg/mL (± SEM) PaCa2 [12]: 96.3 ± 3.0 pg/mL; TNF-α % inhibition MCF7 [13]: 0.1%; TNF-α pg/mL (± SEM) MCF7 [13]: 83.17 ± 4.1 pg/mL
2 | CCOP(=O)(OCC)N1C/C(=C\c2ccc(C)cc2)C(=O)C2(C1)C(c1ccc(C)cc1)CN(C)C21C(=O)Nc2ccc(Cl)cc21 (centres unmarked) [Compound 17o, Diethyl (E)-[5-chloro-1′-methyl-5′′-(4-methylbenzylidene)-2,4′′-dioxo-4′-(p-tolyl)dispiro[indoline-3,2′-pyrrolidine-3′,3′′-piperidin]-1′′-yl]phosphonate] | 3.76 ± 0.064 µM | 3.76 µM | > 13.3 | 0.1594 | 6.27 ± 0.148 µM | > 8.0 | 4.67 ± 0.086 µM | > 10.7 | 36 ± 1.15 µM | > 50 µM | high selectivity index | 84.8% | 48.40 ± 0.6 pg/mL | 90.3% | 31.64 ± 1.9 pg/mL | 85% | 38.70 ± 0.4 pg/mL | 61.7 ± 3.4% | 59.3 ± 2.4% | 1.14 | SI (selectivity index) A549 ([4]; IC50 of RPE1 normal cell/IC50 of A549): > 1.3; TNF-α % inhibition HCT116 [11]: 9.8%; TNF-α pg/mL (± SEM) HCT116 [11]: 86.34 ± 0.9 pg/mL; TNF-α % inhibition PaCa2 [12]: 14.5%; TNF-α pg/mL (± SEM) PaCa2 [12]: 95.6 ± 2.2 pg/mL; TNF-α % inhibition MCF7 [13]: 1.7%; TNF-α pg/mL (± SEM) MCF7 [13]: 81.85 ± 3.1 pg/mL
